The record followed here is article PMC5159279 (Hypertension (Dallas, Tex. : 1979), 2016).

Series [1] concerns arterioles from adipose biopsies of patients with hypertension. Nature of the series: Human ex vivo vasoreactivity, phenylephrine cumulative dose response. The following applies: cumulative dose response without HbαX.
For series [2], the system named is mice with AngII-induced hypertension. The series is described as follows: Radiotelemetry blood pressure, AngII-induced hypertensive mice. The series is classed as in vivo. The following applies: AngII 1000 ng/kg/min by osmotic mini-pump; from a baseline of 110 mmHg.
In series [3] the test system is hemoglobin in red blood cells. Nature of the series: Red blood cell oxygen p50. To be noted: fresh human blood; 5 minutes incubation; HbαX 30 μmol/L; n=3.

As to `CNC[C@H](O)c1cccc(O)c1` [phenylephrine], the “responsiveness of human arterioles to PE” value in series [1] is “responsive”.
On to Angiotensin II [AngII], for which the “systolic blood pressure on AngII” value in series [2] was ~ 170 mmHg.
As for FPYFSTKLTT [control peptide], the “oxygen p50 of hemoglobin in RBCs” value in series [3] is listed as “did not significantly change the oxygen p50”.
